Source: patent US10039741B2, “Use of delta tocopherol for the treatment of lysosomal storage disorders” (The United States of America, as represented by the …, priority 2010, dated 2018)

Experiments:
Type in all cases: cell-based, human
NPCD fibroblasts = experiment: Lysotracker staining assay (lysosome size)
Protocol: Lysotracker is fluorescent dye that stains acidic compartments in live cells and is well-retained after aldehyde fixation. We have optimized a lysotracker staining assay to visualize the enlarged lysosome size in the NPC skin fibroblasts by applying appropriate concentration of lysotracker dye in comparison with these normal fibroblast cells. Cells were seeded at 8000 cells/well in 100 μl medium in a black/clear bottom, tissue culture treated plate and cultured overnight or in a dedicated time. The cells were live-stained with 100 u/well 50 nM Lysotracker Red-99 dye (Invitrogen) dissolved medium at 37° C. for 1 hr followed by two-times plate wash with PBS buffer using the plate-inverted centrifugation method. The plate was then added with 100 μl/well 3.2% formaldehyde and 1 μg/ml Hoechst 33342 (Invitrogen) in PBS and incubated at room temperature for 30 minutes. After three times of plate wash with PBS buffer, samples were stored at 4° C. until imaging. Samples were photographed using an IN Cell Analyzer 1000 (GE Healthcare) with a 20× objective equipped with CCD camera. DAPI filter and TRITC filter were used to visualize Hoechst and Lysotracker red, respectively. The images were processed by Adobe Photoshop.

Wolman disease cells = experiment: Amplex-red cholesterol assay (total cholesterol), combination therapy
From the text: (1) Amplex-red cholesterol assay. This biochemical assay (Invitrogen) uses cholesterol oxidase and a HRP-Amplex-re reporting system to measure the free cholesterol level in cells. With the addition of acid lipase to this assay, that hydrolyzes cholesterol ester to free cholesterol, the level of total cholesterol in cells including the cholesterol ester can be measured. This assay was used for detecting the total cholesterol level of in fibroblasts from patients with Wolman disease.

WT fibroblasts = experiment: Microarray gene expression; set-up: ACACA expression, Toco treat WT / HMGCR expression, Toco treat WT / SREBF2 expression, Toco treat WT / LDLR expression, Toco treat WT: unit not given here; details: 40 μM delta-tocopherol 5 days vs DMSO-treated
Protocol: Five NPC fibroblast cell lines as well as five normal fibroblast cell lines were treated with 40 μM delta-tocopherol for 5 days with a medium change and sully of fresh compound on 3rd day. The total RNAs was prepared as the standard method described previously ( ). The microarray gene expression experiment was carried out in a core microarray facility at NHGRI with a set of AAAAA chips (Affymetrix). Partek Genomics Software Suite (Copyright, Partek Inc.) was used to perform analysis of microarray data. Affymetrix cell files were loaded into the software using the RMA algorithm, which involved background correction, quantile normalization, log-2 transformation, and median polish summarization. PCA and hierarchical clustering identified one sample as an outlier. This sample (sample number 12) was not considered for further analysis. ANOVA was performed to identify the differentially expressed genes for three comparisons: 1) NPC_DMSO vs WT_DMSO 2) NPC tocopherol-treated vs NPC_DMSO-treated and 3) WT_tocopherol-treated vs WT_DMSO-treated.

For `Cc1cc(O)cc2c1O[C@](C)(CCC[C@H](C)CCC[C@H](C)CCCC(C)C)CC2` [δ-tocopherol], the “effect on lysosome size decrease” value (NPCD fibroblasts; 9 additional fibroblast primary cells from different NPCD patients) was “confirmed”, the enlarged lysosome size (NPCD fibroblasts; NPCD fibroblasts) was “decreased and shrunken to the size similar to the wild type cells” and the “cholesterol level, sole therapy” value (Wolman disease cells; 40 μM delta-tocopherol or 80 μM alpha-tocopherol alone) was “cholesterol reduction effect”. The “cholesterol level, combination” value (Wolman disease cells; delta-tocopherol 10 μM combined with 10 μM MBCD) was “cholesterol reduction effect”, the “interaction of delta-tocopherol and cyclodextrin” value (Wolman disease cells; sub-effective concentrations combined) was “synergetic or additive effect” and the “ABCA1 expression, Toco treat WT” value (WT fibroblasts) was −1.4. For the same molecule, the “ACACA expression, Toco treat WT” value (WT fibroblasts) was −1.5, the “DHCR7 expression, Toco treat WT” value (WT fibroblasts) was −1.6 and the “FADS2 expression, Toco treat WT” value (WT fibroblasts) was −2.0. The “FRRS1 expression, Toco treat WT” value (WT fibroblasts) was −1.1, the “HMGCR expression, Toco treat WT” value (WT fibroblasts) was −1.5 and the “HMGCS1 expression, Toco treat WT” value (WT fibroblasts) was −1.6. For the same molecule, the “INSIG1 expression, Toco treat WT” value (WT fibroblasts) was −1.6, the “LDLR expression, Toco treat WT” value (WT fibroblasts) was −2.0 and the “MMP1 expression, Toco treat WT” value (WT fibroblasts) was 5.0. The “MMP3 expression, Toco treat WT” value (WT fibroblasts) was 2.0, the “NOX4 expression, Toco treat WT” value (WT fibroblasts) was −1.7 and the “SC4MOL expression, Toco treat WT” value (WT fibroblasts) was −1.7. For the same molecule, the “SCD expression, Toco treat WT” value (WT fibroblasts) was −3.5, the “SREBF1 expression, Toco treat WT” value (WT fibroblasts) was −1.2 and the “SREBF2 expression, Toco treat WT” value (WT fibroblasts) was −1.6.
